Data taken from patent publication US10538555B2, “Macrocyclic inhibitors of the PD-1/PD-L1 and CD80(B7-1)/PD-L1 protein/protein interactions” (BRISTOL-MYERS SQUIBB COMPANY, priority 2014, dated 2020).
pIC50: −log10 of the molar value. Where a SMILES comes first, the peptide text is derived from it. Bridges are numbered along the chain shown (N, C = ends). [ ]: non-standard residue; d: D form. Trp(1-CH2COOH) = N[C@@H](Cc1cn(CC(=O)O)c2ccccc12)C(=O)O; Hyp = O=C(O)[C@@H]1C[C@@H](O)CN1; NMeNle = CCCC[C@H](NC)C(=O)O; hSer = N[C@@H](CCO)C(=O)O; NMeA = CN[C@@H](C)C(=O)O; Orn = NCCC[C@H](N)C(=O)O; Dab = NCC[C@H](N)C(=O)O; Dap = NC[C@H](N)C(=O)O

Target: T1, Human PD-L1/PD-1 (Homo sapiens, UniProt Q9NZQ7)
T1 construct: TVMV protease cleavage site (C); made in house; host or cells: HEK293T cells
Assay: HTRF Human PD-L1/PD-1 binding assay (PD-1-Ig/PD-L1-His)
Details: PD-L1-His 10 nM, PD-1-Ig 20 nM; class symbol; read-out: HTRF Human PD-L1/PD-1 Binding Assay IC50 Range
How it was run: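 Compound preincubated 15 min with PD-L1-His (10 nM final), then PD-1-Ig (20 nM final) added for 15 min in dPBS with 0.1% BSA and 0.05% Tween-20. Detection by Eu-cryptate anti-Ig (1 nM) and APC anti-His (20 nM) after 30 min; 665/620 nm HTRF ratio. Proteins expressed in HEK293T.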

T1 sequence (Q9NZQ7 with tags, fused parts or gaps): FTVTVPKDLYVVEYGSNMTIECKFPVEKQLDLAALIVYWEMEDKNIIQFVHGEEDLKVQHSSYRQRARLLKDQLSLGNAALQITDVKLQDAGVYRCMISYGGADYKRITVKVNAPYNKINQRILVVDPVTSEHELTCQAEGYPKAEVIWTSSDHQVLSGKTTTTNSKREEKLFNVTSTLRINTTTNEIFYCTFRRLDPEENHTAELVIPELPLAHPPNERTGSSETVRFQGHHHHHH

CCCC[C@H]1C(=O)N(C)[C@@H](CCCC)C(=O)N[C@@H](CC(C)C)C(=O)N[C@H](C(=O)NCC(N)=O)CSCC(=O)N[C@@H](Cc2ccc(O)cc2)C(=O)N(C)[C@@H](C)C(=O)N[C@@H](CC(N)=O)C(=O)N2CCC[C@H]2C(=O)N[C@@H](Cc2cnc[nH]2)C(=O)N[C@@H](CCC(N)=O)C(=O)N2C[C@H](O)C[C@H]2C(=O)N[C@@H](Cc2c[nH]c3ccccc23)C(=O)N[C@@H](CO)C(=O)N[C@@H](Cc2cn(CC(=O)O)c3ccccc23)C(=O)N1C [Example 6176] ({CH2CO}-Y[NMeA]NPHQ[Hyp]WS[Trp(1-CH2COOH)][NMeNle][NMeNle]LCG-NH2; thioether N-14)
pIC50: 7.00 to 8.00

CCCC[C@H]1C(=O)N(C)[C@@H](CCCC)C(=O)N[C@@H](CC(C)C)C(=O)N[C@H](C(N)=O)CSCC(=O)N[C@@H](Cc2ccc(O)cc2)C(=O)N(C)[C@@H](C)C(=O)N[C@@H](CC(N)=O)C(=O)N2CCC[C@H]2C(=O)N[C@@H](CN)C(=O)N[C@@H](CC(C)C)C(=O)N2C[C@H](O)C[C@H]2C(=O)N[C@@H](Cc2c[nH]c3ccccc23)C(=O)N[C@@H](CO)C(=O)N[C@@H](Cc2cn(CC(=O)O)c3ccccc23)C(=O)N1C [Example 6180] ({CH2CO}-Y[NMeA]NP[Dap]L[Hyp]WS[Trp(1-CH2COOH)][NMeNle][NMeNle]LC-NH2; thioether N-14)
pIC50: 8.00 to 9.00

CCCC[C@H]1C(=O)N(C)[C@@H](CCCC)C(=O)N[C@@H](CCC(=O)O)C(=O)N[C@H](C(=O)NCC(N)=O)CSCC(=O)N[C@@H](Cc2ccc(O)cc2)C(=O)N(C)[C@@H](C)C(=O)N[C@@H](CC(=O)O)C(=O)N2CCC[C@H]2C(=O)N[C@@H](CN)C(=O)N[C@@H](CCC(N)=O)C(=O)N2C[C@H](O)C[C@H]2C(=O)N[C@@H](Cc2c[nH]c3ccccc23)C(=O)N[C@@H](CCN)C(=O)N[C@@H](Cc2cn(CC(=O)O)c3ccccc23)C(=O)N1C [Example 6189] ({CH2CO}-Y[NMeA]DP[Dap]Q[Hyp]W[Dab][Trp(1-CH2COOH)][NMeNle][NMeNle]ECG-NH2; thioether N-14)
pIC50: 8.00 to 9.00

CCCC[C@H]1C(=O)N(C)[C@@H](CCCC)C(=O)N[C@@H](CCCNC(=N)N)C(=O)N[C@H](C(=O)NCC(N)=O)CSCC(=O)N[C@@H](Cc2ccc(O)cc2)C(=O)N(C)[C@@H](C)C(=O)N[C@@H](CC(N)=O)C(=O)N2CCC[C@H]2C(=O)N[C@@H](Cc2cnc[nH]2)C(=O)N[C@@H](CO)C(=O)N2C[C@H](O)C[C@H]2C(=O)N[C@@H](Cc2c[nH]c3ccccc23)C(=O)N[C@@H](CO)C(=O)N[C@@H](Cc2cn(CC(=O)O)c3ccccc23)C(=O)N1C [Example 6202] ({CH2CO}-Y[NMeA]NPHS[Hyp]WS[Trp(1-CH2COOH)][NMeNle][NMeNle]RCG-NH2; thioether N-14)
pIC50: 7.00 to 8.00

CCCC[C@H]1C(=O)N(C)[C@@H](CCCC)C(=O)N[C@@H](CC(C)C)C(=O)N[C@H](C(N)=O)CSCC(=O)N[C@@H](Cc2ccc(O)cc2)C(=O)N(C)[C@@H](C)C(=O)N[C@@H](CC(N)=O)C(=O)N2CCC[C@H]2C(=O)N[C@@H](CN)C(=O)N[C@@H](CC(C)C)C(=O)N2C[C@H](O)C[C@H]2C(=O)N[C@@H](Cc2c[nH]c3ccccc23)C(=O)N[C@@H](CCC(=O)O)C(=O)N[C@@H](Cc2cn(CC(=O)O)c3ccccc23)C(=O)N1C [Example 6203] ({CH2CO}-Y[NMeA]NP[Dap]L[Hyp]WE[Trp(1-CH2COOH)][NMeNle][NMeNle]LC-NH2; thioether N-14)
pIC50: 8.00 to 9.00

CCCC[C@H]1C(=O)N(C)[C@@H](CCCC)C(=O)N[C@@H](CC(C)C)C(=O)N[C@H](C(=O)NCC(N)=O)CSCC(=O)N[C@@H](Cc2ccc(O)cc2)C(=O)N(C)[C@@H](C)C(=O)N[C@@H](CC(N)=O)C(=O)N2CCC[C@H]2C(=O)N[C@@H](Cc2cnc[nH]2)C(=O)N[C@@H](CCCCN)C(=O)N2C[C@H](O)C[C@H]2C(=O)N[C@@H](Cc2c[nH]c3ccccc23)C(=O)N[C@@H](CCCCN)C(=O)N[C@@H](Cc2cn(CC(=O)O)c3ccccc23)C(=O)N1C [Example 6204] ({CH2CO}-Y[NMeA]NPHK[Hyp]WK[Trp(1-CH2COOH)][NMeNle][NMeNle]LCG-NH2; thioether N-14)
pIC50: 8.00 to 9.00

CCCC[C@H]1C(=O)N(C)[C@@H](CCCC)C(=O)N[C@@H](CC(=O)O)C(=O)N[C@H](C(=O)NCC(N)=O)CSCC(=O)N[C@@H](Cc2ccc(O)cc2)C(=O)N(C)[C@@H](C)C(=O)N[C@@H](CC(=O)O)C(=O)N2CCC[C@H]2C(=O)N[C@@H](Cc2cnc[nH]2)C(=O)N[C@@H](CCCCN)C(=O)N2C[C@H](O)C[C@H]2C(=O)N[C@@H](Cc2c[nH]c3ccccc23)C(=O)N[C@@H](CCCCN)C(=O)N[C@@H](Cc2cn(CC(=O)O)c3ccccc23)C(=O)N1C [Example 6209] ({CH2CO}-Y[NMeA]DPHK[Hyp]WK[Trp(1-CH2COOH)][NMeNle][NMeNle]DCG-NH2; thioether N-14)
pIC50: 8.00 to 9.00

CCCC[C@H]1C(=O)N(C)[C@@H](CCCC)C(=O)N[C@@H](CCCNC(=N)N)C(=O)N[C@H](C(=O)NCC(N)=O)CSCC(=O)N[C@@H](Cc2ccc(O)cc2)C(=O)N(C)[C@@H](C)C(=O)N[C@@H](CC(N)=O)C(=O)N2CCC[C@H]2C(=O)N[C@@H](CO)C(=O)N[C@@H](CCO)C(=O)N2C[C@H](O)C[C@H]2C(=O)N[C@@H](Cc2c[nH]c3ccccc23)C(=O)N[C@@H](CCO)C(=O)N[C@@H](Cc2cn(CC(=O)O)c3ccccc23)C(=O)N1C [Example 6213] ({CH2CO}-Y[NMeA]NPS[hSer][Hyp]W[hSer][Trp(1-CH2COOH)][NMeNle][NMeNle]RCG-NH2; thioether N-14)
pIC50: 8.00 to 9.00

CCCC[C@H]1C(=O)N(C)[C@@H](CCCC)C(=O)N[C@@H](CC(C)C)C(=O)N[C@H](C(=O)NCC(N)=O)CSCC(=O)N[C@@H](Cc2ccc(O)cc2)C(=O)N(C)[C@@H](C)C(=O)N[C@@H](CC(N)=O)C(=O)N2CCC[C@H]2C(=O)N[C@@H](CO)C(=O)N[C@@H](CCC(N)=O)C(=O)N2C[C@H](O)C[C@H]2C(=O)N[C@@H](Cc2c[nH]c3ccccc23)C(=O)N[C@@H](CO)C(=O)N[C@@H](Cc2cn(CC(=O)O)c3ccccc23)C(=O)N1C [Example 6216] ({CH2CO}-Y[NMeA]NPSQ[Hyp]WS[Trp(1-CH2COOH)][NMeNle][NMeNle]LCG-NH2; thioether N-14)
pIC50: 8.00 to 9.00

CCCC[C@H]1C(=O)N(C)[C@@H](CCCC)C(=O)N[C@@H](CCCNC(=N)N)C(=O)N[C@H](C(=O)NCC(N)=O)CSCC(=O)N[C@@H](Cc2ccc(O)cc2)C(=O)N(C)[C@@H](C)C(=O)N[C@@H](CC(=O)O)C(=O)N2CCC[C@H]2C(=O)N[C@@H](Cc2cnc[nH]2)C(=O)N[C@@H](CCCCN)C(=O)N2C[C@H](O)C[C@H]2C(=O)N[C@@H](Cc2c[nH]c3ccccc23)C(=O)N[C@@H](CCCCN)C(=O)N[C@@H](Cc2cn(CC(=O)O)c3ccccc23)C(=O)N1C [Example 6224] ({CH2CO}-Y[NMeA]DPHK[Hyp]WK[Trp(1-CH2COOH)][NMeNle][NMeNle]RCG-NH2; thioether N-14)
pIC50: 7.00 to 8.00

CCCC[C@H]1C(=O)N(C)[C@@H](CCCC)C(=O)N[C@@H](CCCNC(=N)N)C(=O)N[C@H](C(=O)NCC(N)=O)CSCC(=O)N[C@@H](Cc2ccc(O)cc2)C(=O)N(C)[C@@H](C)C(=O)N[C@@H](CC(N)=O)C(=O)N2CCC[C@H]2C(=O)N[C@@H](Cc2cnc[nH]2)C(=O)N[C@@H](CCC(=O)O)C(=O)N2C[C@H](O)C[C@H]2C(=O)N[C@@H](Cc2c[nH]c3ccccc23)C(=O)N[C@@H](CO)C(=O)N[C@@H](Cc2cn(CC(=O)O)c3ccccc23)C(=O)N1C [Example 6228] ({CH2CO}-Y[NMeA]NPHE[Hyp]WS[Trp(1-CH2COOH)][NMeNle][NMeNle]RCG-NH2; thioether N-14)
pIC50: 8.00 to 9.00

CCCC[C@H]1C(=O)N(C)[C@@H](CCCC)C(=O)N[C@@H](CC(C)C)C(=O)N[C@H](C(=O)NCC(N)=O)CSCC(=O)N[C@@H](Cc2ccc(O)cc2)C(=O)N(C)[C@@H](C)C(=O)N[C@@H](CCN)C(=O)N2CCC[C@H]2C(=O)N[C@@H](Cc2cnc[nH]2)C(=O)N[C@@H](CCC(=O)O)C(=O)N2C[C@H](O)C[C@H]2C(=O)N[C@@H](Cc2c[nH]c3ccccc23)C(=O)N[C@@H](CO)C(=O)N[C@@H](Cc2cn(CC(=O)O)c3ccccc23)C(=O)N1C [Example 6236] ({CH2CO}-Y[NMeA][Dab]PHE[Hyp]WS[Trp(1-CH2COOH)][NMeNle][NMeNle]LCG-NH2; thioether N-14)
pIC50: 8.00 to 9.00

CCCC[C@H]1C(=O)N(C)[C@@H](CCCC)C(=O)N[C@@H](CN)C(=O)N[C@H](C(=O)NCC(N)=O)CSCC(=O)N[C@@H](Cc2ccc(O)cc2)C(=O)N(C)[C@@H](C)C(=O)N[C@@H](CC(N)=O)C(=O)N2CCC[C@H]2C(=O)N[C@@H](Cc2cnc[nH]2)C(=O)N[C@@H](CCC(=O)O)C(=O)N2C[C@H](O)C[C@H]2C(=O)N[C@@H](Cc2c[nH]c3ccccc23)C(=O)N[C@@H](CO)C(=O)N[C@@H](Cc2cn(CC(=O)O)c3ccccc23)C(=O)N1C [Example 6244] ({CH2CO}-Y[NMeA]NPHE[Hyp]WS[Trp(1-CH2COOH)][NMeNle][NMeNle][Dap]CG-NH2; thioether N-14)
pIC50: 8.00 to 9.00

CCCC[C@H]1C(=O)N(C)[C@@H](CCCC)C(=O)N[C@@H](CN)C(=O)N[C@H](C(=O)NCC(N)=O)CSCC(=O)N[C@@H](Cc2ccc(O)cc2)C(=O)N(C)[C@@H](C)C(=O)N[C@@H](CC(N)=O)C(=O)N2CCC[C@H]2C(=O)N[C@@H](CO)C(=O)N[C@@H](Cc2cnc[nH]2)C(=O)N2C[C@H](O)C[C@H]2C(=O)N[C@@H](Cc2c[nH]c3ccccc23)C(=O)N[C@@H](CCN)C(=O)N[C@@H](Cc2cn(CC(=O)O)c3ccccc23)C(=O)N1C [Example 6247] ({CH2CO}-Y[NMeA]NPSH[Hyp]W[Dab][Trp(1-CH2COOH)][NMeNle][NMeNle][Dap]CG-NH2; thioether N-14)
pIC50: 8.00 to 9.00

CCCC[C@H]1C(=O)N(C)[C@@H](CCCC)C(=O)N[C@@H](C)C(=O)N[C@H](C(=O)NCC(N)=O)CSCC(=O)N[C@@H](Cc2ccc(O)cc2)C(=O)N(C)[C@@H](C)C(=O)N[C@@H](CC(=O)O)C(=O)N2CCC[C@H]2C(=O)N[C@@H](Cc2cnc[nH]2)C(=O)N[C@@H](CCCN)C(=O)N2C[C@H](O)C[C@H]2C(=O)N[C@@H](Cc2c[nH]c3ccccc23)C(=O)N[C@@H](CO)C(=O)N[C@@H](Cc2cn(CC(=O)O)c3ccccc23)C(=O)N1C [Example 6249] ({CH2CO}-Y[NMeA]DPH[Orn][Hyp]WS[Trp(1-CH2COOH)][NMeNle][NMeNle]ACG-NH2; thioether N-14)
pIC50: 8.00 to 9.00
